Measured values as given in patent publication US20180339016A1 (priority 2015, published 2018).
Where two headings read alike, the source gives them in different places.

Assays:
E. coli ATCC 25922 [1] = test system: E. coli ATCC 25922
[2] = test system: Escherichia coli (ATCC 25922); conditions: peptide alone; peptide concentration required to inhibit growth by 20% (so in the source)
Procedure: (§1) The N-terminus of the peptides were acetylated and the C-terminus was amidated. The kinked structure can rapidly reduce the alpha-helical content, thereby greatly reducing the toxicity of the peptide against host cells. In addition, because of the potential to show specificity for the Gram-negative bacterial membrane, Pro-mutants were prepared by site-directed mutagenesis. Using the prepared peptides, their MIC for the Gram-negative bacterium E. coli and the Gram-positive bacterium S. aureus and their hemolytic activity for host cells were examined (Table 1).
(§2) To measure the synergy between the membrane-activating peptides and the repositioning drug, a 10× compound was prepared, and then serially diluted ⅔-fold with distilled water. An MH broth (900 μl) was added to and mixed with the 10× compound (100 μl), and then 200 μL of the mixture was taken and added to a 96-well plate. E. coli cultured for one day was adjusted to 0.5 MCF using MCFarland, and diluted 10-fold, and then 10 μl of the dilution was added to each well of the plate (5×10^5 CFU/mL). After addition of the bacterial cells, plate was incubated at 37° C. for 18 hours, and then the OD value at UV-Vis (600 nm) was measured. Cell viability (%)=(OD600 of sample−OD600 of negative control)/(OD600 of positive control−OD600 of negative control)×100.

E. coli ATCC 25922 [3] = assay: Antibiotic interaction assay (Wimley), 2/3 broth microdilution: MIC alone, MIC of combination, FICI; assay type: cell-based; conditions: for MIC of combination (μM): antibiotic (colistin): colistin concentration in combination with labelled peptide; for MIC of peptide: peptide alone
Procedure: Synergy was evaluated by an antibiotic interaction assay (Wimley, 2015) Using the method of Wimley (BBA, 2015, v. 1848(1), pp. 8-15), synergy between the membrane-activating peptide and an antibiotic was measured by an FICI value (FIG. 17). […] Thus, to accurately examine synergy, a ⅔ dilution method which observes MIC at denser concentration intervals is advantageous over a ½ dilution method in statistical terms. […] In the same manner, the MIC of an antibiotic or repositioning drug (second line) is measured. In the third line, the two compounds are mixed after putting half amount each, and the MIC thereof is measured.
A broth microdilution technique (⅔ dilution) was used together with an MH broth. E. coli treated with an antibiotic and the peptide was incubated in a 37° C. incubator for 18 hours.
as §2

[4] = test system: Staphylococcus aureus (ATCC 29213); assay: MIC of peptide against S. aureus; assay type: cell-based; conditions: peptide alone
Procedure: as §1

[5] = Table 13, Lys-Ala scanning library
[6] = labelled peptide + colistin + linezolid
[7] = peptide concentration in combination with colistin
[8] = three compounds: labelled peptide + colistin + linezolid

ALLKLLKKPLKLLK [KL-L9P/K1A]
FICI Against E. coli, Colistin & 1/2 MIC peptide (E. coli ATCC 25922 [1]; [5]): 0.71

Ac-KLLKALKKPLKLLK-NH2 [KL-L5AL9P]
MIC [μM] Against E. coli [2]: 18 µM
increase of FICI value with colistin when peptide changed from 1/4 MIC to 1/2 MIC (E. coli ATCC 25922 [1]): 0.37
FICI Against E. coli, Colistin & 1/2 MIC peptide (E. coli ATCC 25922 [1]; Table 15, Leu-Ala scanning): 0.86
FICI Against E. coli, Colistin & 1/4 MIC peptide (E. coli ATCC 25922 [1]; Table 15, Leu-Ala scanning): 0.49

KALKLLKKPLKLLK [KL-L2AL9P]
MIC [μM] Against E. coli [2]: 40 µM
FICI Against E. coli, Colistin & 1/2 MIC peptide (E. coli ATCC 25922 [1]; Table 15, Leu-Ala scanning): 0.74
FICI Against E. coli, Colistin & 1/4 MIC peptide (E. coli ATCC 25922 [1]; Table 15, Leu-Ala scanning): 0.61

KLAKLLKKPLKLLK [KL-L3AL9P]
MIC [μM] Against E. coli [2]: 27 µM
FICI Against E. coli, Colistin & 1/2 MIC peptide (E. coli ATCC 25922 [1]; Table 15, Leu-Ala scanning): 0.70
FICI Against E. coli, Colistin & 1/4 MIC peptide (E. coli ATCC 25922 [1]; Table 15, Leu-Ala scanning): 0.55

KLLALLKKPLKLLK [KL-L9P/K4A]
FICI Against E. coli, Colistin & 1/2 MIC peptide (E. coli ATCC 25922 [1]; [5]): 0.79

KLLKLLAKPLKLLK [KL-L9P/K7A]
FICI Against E. coli, Colistin & 1/2 MIC peptide (E. coli ATCC 25922 [1]; [5]): 0.86

KLLKLLCKLCKLLK [7, 10 kink]
MIC [μM] Against E. coli [2]: 1.1 µM
MIC of combination (μM): antibiotic (colistin) (E. coli ATCC 25922 [3]): 0.081 µM
FICI of peptide with colistin (E. coli ATCC 25922 [3]; labelled peptide + colistin): 0.89
FICIPeptide (E. coli ATCC 25922 [3]; labelled peptide + colistin): 0.58
FICIcolistin / FICIantibiotic (E. coli ATCC 25922 [3]; labelled peptide + colistin): 0.31
FICI of peptide with colistin and linezolid (E. coli ATCC 25922 [3]; [6]): 1.1
FICIPeptide (E. coli ATCC 25922 [3]; [6]): 0.37
FICIcolistin (E. coli ATCC 25922 [3]; [6]): 0.33
FICIlinezolid (E. coli ATCC 25922 [3]; [6]): 0.37
MIC of peptide (E. coli ATCC 25922 [3]): 1.1 µM
MIC of combination (μM): peptide (E. coli ATCC 25922 [3]; [7]): 0.63 µM
MIC of combination (μM): colistin (E. coli ATCC 25922 [3]; [8]): 0.081 µM
MIC of combination (μM): linezolid (E. coli ATCC 25922 [3]; [8]): 22 µM
MIC of combination (μM): peptide (E. coli ATCC 25922 [3]; [8]): 0.44 µM

KLLKLLKAPLKLLK [KL-L9P/K8A]
FICI Against E. coli, Colistin & 1/2 MIC peptide (E. coli ATCC 25922 [1]; [5]): 0.97

KLLKLLKCLLKCLK [8, 12 kink]
MIC [μM] Against E. coli [2]: 1.1 µM
MIC of combination (μM): antibiotic (colistin) (E. coli ATCC 25922 [3]): 0.065 µM
FICI of peptide with colistin (E. coli ATCC 25922 [3]; labelled peptide + colistin): 0.86
FICIPeptide (E. coli ATCC 25922 [3]; labelled peptide + colistin): 0.56
FICIcolistin / FICIantibiotic (E. coli ATCC 25922 [3]; labelled peptide + colistin): 0.30
FICI of peptide with colistin and linezolid (E. coli ATCC 25922 [3]; [6]): 1.1
FICIPeptide (E. coli ATCC 25922 [3]; [6]): 0.42
FICIcolistin (E. coli ATCC 25922 [3]; [6]): 0.29
FICIlinezolid (E. coli ATCC 25922 [3]; [6]): 0.37
MIC of peptide (E. coli ATCC 25922 [3]): 1.1 µM
MIC of combination (μM): peptide (E. coli ATCC 25922 [3]; [7]): 0.59 µM
MIC of combination (μM): colistin (E. coli ATCC 25922 [3]; [8]): 0.065 µM
MIC of combination (μM): linezolid (E. coli ATCC 25922 [3]; [8]): 22 µM
MIC of combination (μM): peptide (E. coli ATCC 25922 [3]; [8]): 0.44 µM

KLLKLLKKDLKLLK [KL L9D]
MIC [μM] Against E. coli [2]: 20 µM
MIC of combination (μM): antibiotic (colistin) (E. coli ATCC 25922 [3]): 0.09 µM
FICI of peptide with colistin (E. coli ATCC 25922 [3]; labelled peptide + colistin): 0.46
FICIPeptide (E. coli ATCC 25922 [3]; labelled peptide + colistin): 0.28
FICIcolistin / FICIantibiotic (E. coli ATCC 25922 [3]; labelled peptide + colistin): 0.18
FICI of peptide with simvastatin (E. coli ATCC 25922 [3]; labelled peptide + simvastatin): 0.61
FICIPeptide (E. coli ATCC 25922 [3]; labelled peptide + simvastatin): 0.5
FICIsimvastatin (E. coli ATCC 25922 [3]; labelled peptide + simvastatin): 0.11
MIC of peptide (E. coli ATCC 25922 [3]): 18 µM
MIC of combination (μM): peptide (E. coli ATCC 25922 [3]; [7]): 5 µM
MIC of combination (μM): peptide (E. coli ATCC 25922 [3]; peptide concentration in combination with simvastatin): 9 µM
MIC of combination (μM): simvastatin (E. coli ATCC 25922 [3]; simvastatin concentration in combination with labelled peptide): 83.33 µM

KLLKLLKKLLKLLK
MIC [μM] Against E. coli [2]: 20 µM
MIC [μM] Against S. aureus [4]: 20 µM

KLLKLLKKLLKLPK [KL-L13P]
MIC [μM] Against E. coli [2]: 5 µM
MIC [μM] Against S. aureus [4]: 10 µM

KLLKLLKKLLKPLK [KL-L12P]
MIC [μM] Against E. coli [2]: 2.5 µM
MIC [μM] Against S. aureus [4]: 20 µM

KLLKLLKKLPKLLK [KL-L10P]
MIC [μM] Against E. coli [2]: 2.5 µM
MIC [μM] Against S. aureus [4]: 20 µM

KLLKLLKKPAKLLK [KL-L9PL10A]
MIC [μM] Against E. coli [2]: 40 µM
increase of FICI value with colistin when peptide changed from 1/4 MIC to 1/2 MIC (E. coli ATCC 25922 [1]): 0.31
FICI Against E. coli, Colistin & 1/2 MIC peptide (E. coli ATCC 25922 [1]; Table 15, Leu-Ala scanning): 0.80
FICI Against E. coli, Colistin & 1/4 MIC peptide (E. coli ATCC 25922 [1]; Table 15, Leu-Ala scanning): 0.49

KLLKLLKKPLALLK [KL-L9P/K11A]
FICI Against E. coli, Colistin & 1/2 MIC peptide (E. coli ATCC 25922 [1]; [5]): 1.25

KLLKLLKKPLKALK [KL-L9PL12A]
MIC [μM] Against E. coli [2]: 40 µM
FICI Against E. coli, Colistin & 1/2 MIC peptide (E. coli ATCC 25922 [1]; Table 15, Leu-Ala scanning): 0.74
FICI Against E. coli, Colistin & 1/4 MIC peptide (E. coli ATCC 25922 [1]; Table 15, Leu-Ala scanning): 0.61

KLLKLLKKPLKLAK [KL-L9PL13A]
MIC [μM] Against E. coli [2]: 40 µM
increase of FICI value with colistin when peptide changed from 1/4 MIC to 1/2 MIC (E. coli ATCC 25922 [1]): 0.29
FICI Against E. coli, Colistin & 1/2 MIC peptide (E. coli ATCC 25922 [1]; Table 15, Leu-Ala scanning): 0.80
FICI Against E. coli, Colistin & 1/4 MIC peptide (E. coli ATCC 25922 [1]; Table 15, Leu-Ala scanning): 0.51

KLLKLLKKPLKLLA [KL-L9P/K14A]
FICI Against E. coli, Colistin & 1/2 MIC peptide (E. coli ATCC 25922 [1]; [5]): 0.66

KLLKLLKPLLKLLK [KL-K8P]
MIC [μM] Against E. coli [2]: 2.5 µM
MIC [μM] Against S. aureus [4]: 5.0 µM
